Assay results: the NIST ThermoML archive (doi:10.1021/je3011979)

How the values were obtained:
[1] = excess molar enthalpy (molar enthalpy of mixing); xn = mol fraction of the nth substance listed; conditions: 101 kPa, Liquid, Calvet calorimetry
[2] = xn = mol fraction of the nth substance listed; conditions: 101 kPa, Liquid, Vibrating tube method

CCCOC(C)=O [propyl ethanoate] + CCCCCCCC
Conditions | excess molar enthalpy [kcal/mol] | mass density [kg/m3]
[1], 291.15 K, x1 = 0.0879 | 0.109 | –
[1], 291.15 K, x1 = 0.1784 | 0.183 | –
[1], 291.15 K, x1 = 0.2664 | 0.2424 | –
[1], 291.15 K, x1 = 0.3472 | 0.2808 | –
[1], 291.15 K, x1 = 0.4208 | 0.3023 | –
[1], 291.15 K, x1 = 0.486 | 0.3102 | –
[1], 291.15 K, x1 = 0.5436 | 0.3088 | –
[1], 291.15 K, x1 = 0.5927 | 0.3004 | –
[1], 291.15 K, x1 = 0.618 | 0.2913 | –
[1], 291.15 K, x1 = 0.6703 | 0.2722 | –
[1], 291.15 K, x1 = 0.7256 | 0.2438 | –
[1], 291.15 K, x1 = 0.7843 | 0.206 | –
[1], 291.15 K, x1 = 0.8412 | 0.164 | –
[1], 291.15 K, x1 = 0.8983 | 0.112 | –
[1], 291.15 K, x1 = 0.9546 | 0.0557 | –
[1], 298.15 K, x1 = 0.0883 | 0.103 | –
[1], 298.15 K, x1 = 0.1747 | 0.174 | –
[1], 298.15 K, x1 = 0.2568 | 0.2309 | –
[1], 298.15 K, x1 = 0.3398 | 0.2701 | –
[1], 298.15 K, x1 = 0.4117 | 0.2913 | –
[1], 298.15 K, x1 = 0.4788 | 0.3004 | –
[1], 298.15 K, x1 = 0.5346 | 0.2985 | –
[1], 298.15 K, x1 = 0.5849 | 0.2913 | –
[1], 298.15 K, x1 = 0.6055 | 0.2866 | –
[1], 298.15 K, x1 = 0.655 | 0.2722 | –
[1], 298.15 K, x1 = 0.7074 | 0.2507 | –
[1], 298.15 K, x1 = 0.7607 | 0.222 | –
[1], 318.15 K, x1 = 0.0767 | 0.0942 | –
[1], 318.15 K, x1 = 0.1676 | 0.177 | –
[1], 318.15 K, x1 = 0.2591 | 0.2433 | –
[1], 318.15 K, x1 = 0.3352 | 0.2818 | –
[1], 318.15 K, x1 = 0.4086 | 0.305 | –
[1], 318.15 K, x1 = 0.4719 | 0.3117 | –
[1], 318.15 K, x1 = 0.5293 | 0.3098 | –
[1], 318.15 K, x1 = 0.5791 | 0.3004 | –
[1], 318.15 K, x1 = 0.5859 | 0.2983 | –
[1], 318.15 K, x1 = 0.6316 | 0.2847 | –
[1], 318.15 K, x1 = 0.6848 | 0.2648 | –
[1], 318.15 K, x1 = 0.7377 | 0.2392 | –
[1], 318.15 K, x1 = 0.7936 | 0.2065 | –
[1], 318.15 K, x1 = 0.8521 | 0.163 | –
[1], 318.15 K, x1 = 0.9064 | 0.114 | –
[1], 318.15 K, x1 = 0.9555 | 0.0595 | –
[2], 291.15 K, x1 = 0.012 | – | 705.7
[2], 291.15 K, x1 = 0.0405 | – | 708.9
[2], 291.15 K, x1 = 0.1465 | – | 721.9
[2], 291.15 K, x1 = 0.1905 | – | 727.8
[2], 291.15 K, x1 = 0.2679 | – | 738.6
[2], 291.15 K, x1 = 0.3573 | – | 752.2
[2], 291.15 K, x1 = 0.4206 | – | 762.5
[2], 291.15 K, x1 = 0.4808 | – | 772.7
[2], 291.15 K, x1 = 0.5357 | – | 782.6
[2], 291.15 K, x1 = 0.6206 | – | 798.8
[2], 291.15 K, x1 = 0.6668 | – | 808.1
[2], 291.15 K, x1 = 0.7082 | – | 816.9
[2], 291.15 K, x1 = 0.7644 | – | 829.3
[2], 291.15 K, x1 = 0.8181 | – | 841.9
[2], 291.15 K, x1 = 0.8638 | – | 853.1
[2], 291.15 K, x1 = 0.9109 | – | 865.1
[2], 291.15 K, x1 = 0.9798 | – | 883.9
[2], 291.15 K, x1 = 1 | – | 889.6
[2], 298.15 K, x1 = 0.0149 | – | 700.3
[2], 298.15 K, x1 = 0.0603 | – | 705.4
[2], 298.15 K, x1 = 0.1039 | – | 710.8
[2], 298.15 K, x1 = 0.2154 | – | 725.3
[2], 298.15 K, x1 = 0.2536 | – | 730.6
[2], 298.15 K, x1 = 0.3283 | – | 741.5
[2], 298.15 K, x1 = 0.3895 | – | 751.1
[2], 298.15 K, x1 = 0.4733 | – | 765
[2], 298.15 K, x1 = 0.5382 | – | 776.6
[2], 298.15 K, x1 = 0.5953 | – | 787.3
[2], 298.15 K, x1 = 0.6543 | – | 799
[2], 298.15 K, x1 = 0.7043 | – | 809.4
[2], 298.15 K, x1 = 0.7628 | – | 822.2
[2], 298.15 K, x1 = 0.8145 | – | 834.2
[2], 298.15 K, x1 = 0.862 | – | 845.6
[2], 298.15 K, x1 = 0.9221 | – | 860.9
[2], 298.15 K, x1 = 0.9349 | – | 864.3
[2], 298.15 K, x1 = 1 | – | 882.5
[2], 318.15 K, x1 = 0.044 | – | 687.1
[2], 318.15 K, x1 = 0.0919 | – | 692.5
[2], 318.15 K, x1 = 0.1675 | – | 701.7
[2], 318.15 K, x1 = 0.2438 | – | 711.7
[2], 318.15 K, x1 = 0.3148 | – | 721.6
[2], 318.15 K, x1 = 0.3866 | – | 732.3
[2], 318.15 K, x1 = 0.4471 | – | 741.8
[2], 318.15 K, x1 = 0.5188 | – | 753.7
[2], 318.15 K, x1 = 0.5695 | – | 762.8
[2], 318.15 K, x1 = 0.6293 | – | 773.9
[2], 318.15 K, x1 = 0.6793 | – | 783.8
[2], 318.15 K, x1 = 0.7422 | – | 796.8
[2], 318.15 K, x1 = 0.7792 | – | 804.8
[2], 318.15 K, x1 = 0.8435 | – | 819.5
[2], 318.15 K, x1 = 0.8743 | – | 826.9
[2], 318.15 K, x1 = 0.9284 | – | 840.5
[2], 318.15 K, x1 = 1 | – | 859.8
[2], 328.15 K, x1 = 0.0249 | – | 676.7
[2], 328.15 K, x1 = 0.1032 | – | 685.4
[2], 328.15 K, x1 = 0.1801 | – | 694.6
[2], 328.15 K, x1 = 0.2554 | – | 704.4
[2], 328.15 K, x1 = 0.3244 | – | 713.9
[2], 328.15 K, x1 = 0.4 | – | 725
[2], 328.15 K, x1 = 0.4761 | – | 737
[2], 328.15 K, x1 = 0.5341 | – | 746.7
[2], 328.15 K, x1 = 0.5975 | – | 757.9
[2], 328.15 K, x1 = 0.6603 | – | 769.7
[2], 328.15 K, x1 = 0.7147 | – | 780.7
[2], 328.15 K, x1 = 0.7686 | – | 791.9
[2], 328.15 K, x1 = 0.8149 | – | 802.1
[2], 328.15 K, x1 = 0.8651 | – | 813.8
[2], 328.15 K, x1 = 0.9233 | – | 828
[2], 328.15 K, x1 = 0.9404 | – | 832.4
[2], 328.15 K, x1 = 1 | – | 848.3
